Consider three compounds from publication PMC12210912, “Pharmacologic properties and inhibitory activity of 6-azasteroids against Mycobacterium leprae in vivo and in vitro” (Microbiology Spectrum, 2025).

pIC50: −log10 of the molar value. Where two headings read alike, the source gives them in different places.

For one series, the target named is T1, LXRβ (Homo sapiens, UniProt P55055).
T1 construct: Eurofins (assay provider); host or cells: E. coli
T1 sequence (P55055 1-460): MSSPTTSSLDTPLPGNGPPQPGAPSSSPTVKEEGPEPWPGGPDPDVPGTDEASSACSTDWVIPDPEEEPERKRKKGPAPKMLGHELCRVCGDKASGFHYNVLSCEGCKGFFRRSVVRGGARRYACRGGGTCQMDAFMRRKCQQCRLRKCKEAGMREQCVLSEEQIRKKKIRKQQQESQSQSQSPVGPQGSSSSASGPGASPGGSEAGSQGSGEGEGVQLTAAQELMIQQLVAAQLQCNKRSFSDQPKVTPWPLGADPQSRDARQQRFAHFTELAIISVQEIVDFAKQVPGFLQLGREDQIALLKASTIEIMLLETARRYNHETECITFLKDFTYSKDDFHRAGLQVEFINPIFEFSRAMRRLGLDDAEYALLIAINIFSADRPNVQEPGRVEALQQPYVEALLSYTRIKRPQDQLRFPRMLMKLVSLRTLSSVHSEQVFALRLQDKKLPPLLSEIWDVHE
As to the kind of experiment: LXRβ radioligand binding inhibition. Conditions: [3H]T0901317 binding, recombinant protein; for % inhibition observed, LXRβ: 10 µM; for inhibition at 10 µM: read-out: % inhibition observed, LXRβ. As for the experimental part:
Four nuclear receptors: glucocorticoid, androgen, LXRα, and LXRβ were assayed. Inhibition of agonist binding to each of the receptors was carried out following a standard protocol by Eurofins, Inc., USA. Compounds were tested at 10 µM. Compound binding was measured by scintillation counting and was calculated as a % inhibition of the binding of a radioactively labeled ligand specific for each target. Percent inhibition of control specific binding was expressed as
100−[(measured specific binding)/(control specific binding)∗100]
where measured specific binding is the amount of radioactive ligand binding obtained in the presence of test compounds.
(iii) LXRα (human) recombinant protein expressed in E. coli; agonist radioligand 20 nM [^3H] […] (iv) LXRβ (human) recombinant protein expressed in E. coli; agonist radioligand 20 nM [^3H]

The subject of a further series is THP-1 cells. Conditions: cited from earlier work.
A further series deals with T2, hERG channel (Homo sapiens, UniProt Q12809).
T2 construct: host or cells: HEK 293
As to the kind of experiment: hERG potassium channel current inhibition, whole-cell patch clamp. It is filed as cell-based. Conditions: hERG-expressing HEK 293 cells, whole-cell recording, 25 °C. As for the experimental part:
Inhibition of human ether-a-go-go-related gene (hERG) potassium channel current was carried out following a standard protocol by Pharmaron, Inc. hERG stably expressed HEK 293 cell line (Cat# K1236) was purchased from Invitrogen (Thermo Fisher Scientific, USA). The cells are cultured in 90% DMEM, 10% dialyzed FBS, 0.1 mM NEAA, 25 mM HEPES, 100 U/mL Penicillin-Streptomycin, 5 µg/mL Blasticidin, and 400 µg/mL Geneticin. Cells are split using TrypLE Express about three times a week and maintained between ~40% and ~80% confluence. Before the assay, the cells were plated onto the coverslips at 5 × 10^5 cells/6 cm cell culture dish and induced with doxycycline at 1 µg/mL for 48 h. Test compound was initially prepared in DMSO with final concentration of 30 mM as stock solution. Then stock solution of test compound was serial-diluted by ratio of 1:3 with DMSO to prepare additional four intermedial solutions including 10, 3.33, 1.11, 0.37 mM, respectively. […] 5 doses were challenged to the patched cells for IC50 determination.
The voltage-gated hERG potassium channel current was recorded at room temperature (25 °C) from randomly selected transfected cells using whole-cell recording technique with a Multiclamp 700B amplifier (Molecular Devices, US) and an EPC10 microamplifier (HEKA, USA). Extracellular solution (in mM): 132 NaCl, 4 KCl, 3 CaCl2, 0.5 MgCl2, 11.1 glucose, and 10 HEPES (pH adjusted to 7.35 with NaOH). Intracellular solution (in mM): 70 KF, 60 KCl, 15 NaCl, 5 EGTA, and 5 HEPES (pH adjusted to 7.35 with KOH).
The holding potential was set to −90 mV for 1 s; recording current at 50 kHz and filter at 10 kHz. Leaking current was tested at −80 mV for 500 ms. […] The current was recorded for 120 s to assess the current stability. […] After allowing the current to stabilize for 3 min, compound was applied. hERG current in the presence of test compound were recorded for approximately 5 min to reach steady state and then five sweeps were captured. […] Percent current inhibition was calculated using the following equation. […]

The nature of series [1]: stability in human liver microsomes. The series is classed as in vitro ADME. Conditions: both sexes. As for the experimental part:
Experiments were performed by Pharmaron, Inc., China. […] Negative control samples were prepared by replacing the NADPH solution with ultrapure H2O. The negative controls were used to exclude the confounding variable of test compound instability. Experiments involving NADPH were carried out in duplicate. Negative controls were prepared in singlet. Aliquots (90 µL) were taken at 0, 15, 30, 45, and 60 min of incubation. The microsomal reaction in each aliquot was stopped by the addition of four volumes of cold acetonitrile containing internal standards (100 nM alprazolam, 200 nM imipramine, 200 nM labetalol, and 2 µM ketoprofen). The samples were centrifuged at 3,220 × g for 40 min, and an aliquot (90 µL) of the supernatant was mixed with 90 µL of ultrapure H2O. The resulting mixture was used for liquid chromatography–tandem mass spectrometry (LC-MS/MS) analysis (Shimadzu and SCIEX Triple Quad 4500). Peak areas were determined from extracted ion chromatograms. A slope, k, was determined by linear regression analysis of a plot of the natural logarithm of the remaining percentage of the parent drug versus incubation time. The in vitro t1/2 (min) was determined from the slope: in vitro t1/2=−(0.693/k) In vitro t1/2 (min, mean of duplicate determinations) was converted to in vitro intrinsic clearance (in vitro Clint, μL/(min·µg protein)) by means of the following equation : in vitro Clint=(0.693/t1/2)×(volume of incubation (μL)/amount of protein (μg))
Background: Liver microsomes are vesicles of endoplasmic reticulum, rich in cytochrome P450 enzymes.

[2] abbreviates: human liver microsomes, pH 7.4, 1 μM, HLM 0.5 mg/mL, 37°C, 1 h, mean of duplicates, read-out: HLM stability t1/2.

T2 sequence (Q12809 whole entry): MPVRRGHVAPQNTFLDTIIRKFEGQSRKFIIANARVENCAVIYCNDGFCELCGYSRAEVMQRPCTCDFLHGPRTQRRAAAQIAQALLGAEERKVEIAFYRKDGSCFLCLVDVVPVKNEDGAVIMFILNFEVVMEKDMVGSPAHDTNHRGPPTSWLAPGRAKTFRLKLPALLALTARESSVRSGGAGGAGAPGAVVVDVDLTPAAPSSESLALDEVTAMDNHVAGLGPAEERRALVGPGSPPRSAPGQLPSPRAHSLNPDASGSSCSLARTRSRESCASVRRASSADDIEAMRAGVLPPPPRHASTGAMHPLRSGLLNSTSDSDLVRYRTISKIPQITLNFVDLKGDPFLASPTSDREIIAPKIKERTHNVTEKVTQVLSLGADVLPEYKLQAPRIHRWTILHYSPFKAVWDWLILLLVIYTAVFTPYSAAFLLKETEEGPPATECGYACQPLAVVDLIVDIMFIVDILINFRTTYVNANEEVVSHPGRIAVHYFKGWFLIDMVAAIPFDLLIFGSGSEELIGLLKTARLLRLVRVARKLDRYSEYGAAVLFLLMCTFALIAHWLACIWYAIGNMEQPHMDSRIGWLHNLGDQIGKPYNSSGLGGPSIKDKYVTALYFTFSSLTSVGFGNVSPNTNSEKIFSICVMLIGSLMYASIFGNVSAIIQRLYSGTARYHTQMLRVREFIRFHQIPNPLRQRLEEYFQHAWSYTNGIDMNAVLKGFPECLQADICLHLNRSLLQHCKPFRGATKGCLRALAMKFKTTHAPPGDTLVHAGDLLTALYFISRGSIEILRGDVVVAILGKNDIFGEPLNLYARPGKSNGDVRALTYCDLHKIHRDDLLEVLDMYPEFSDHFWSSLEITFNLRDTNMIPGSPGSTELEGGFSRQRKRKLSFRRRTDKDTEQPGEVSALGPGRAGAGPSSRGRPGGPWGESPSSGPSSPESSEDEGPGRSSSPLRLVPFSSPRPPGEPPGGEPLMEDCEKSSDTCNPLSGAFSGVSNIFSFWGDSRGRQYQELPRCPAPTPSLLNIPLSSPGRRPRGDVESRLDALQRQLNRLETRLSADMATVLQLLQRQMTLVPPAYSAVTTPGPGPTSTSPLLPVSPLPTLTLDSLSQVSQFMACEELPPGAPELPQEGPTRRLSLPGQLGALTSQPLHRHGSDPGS

With `CC(C)(C)c1ccc(C(C)(C)C)c(NC(=O)C2CCC3C4CNC5=CC(=O)CC[C@]5(C)C4CC[C@]23C)c1` (stereo partly shown) [Compound 1], at LXRβ, the “% inhibition observed, LXRβ” value is given as “significantly inhibit binding” and the inhibition at 10 µM is 72%. For the same compound, the pIC50 with THP-1 cells (read-out: Mammalian cell IC50 Cytotoxicity THP1, THP-1 cells, 72 h, Alamar Blue) was 4.74. This compound also gave a negative logarithm of the IC50 (pIC50) on hERG channel of 6.02. The same compound had a half-life at 1 µM in series [1] (microsomes, pH 7.4, HLM stability t1/2) of 45 min.
Consider `CCCN1CC2C3CCC(C(=O)Nc4cc(C(C)(C)C)ccc4C(C)(C)C)[C@@]3(C)CCC2[C@@]2(C)CCC(=O)C=C12` (stereo partly shown) [Compound 2], for which, on LXRβ, the “% inhibition observed, LXRβ” value is reported as “significantly inhibit binding” and the inhibition at 10 µM stood at 69%. Besides, the pIC50 in the series with THP-1 cells was 4.62. The compound further had a pIC50 at hERG channel of 6.13. In addition, the half-life at 1 µM in series [1] (setting [2]) is 18 min.
With `C[C@]12CCC3C(CNC4=CC(=O)CC[C@@]43C)C1CCC2C(=O)NC(c1ccc(F)cc1)c1ccc(F)cc1` (stereo partly shown) [Compound 5], the “% inhibition observed, LXRβ” value at LXRβ is “low binding”. Besides, at LXRβ, the inhibition at 10 µM was 26%. The figures for the pIC50 in the series with THP-1 cells and on hERG channel were 4.62 and 5.52, respectively. In addition, the half-life at 1 µM in series [1] (setting [2]) was 443 min; in series [1] (human liver microsomes, pH 7.4, as stated in text, read-out: half-life in human liver microsomes), above 360 min.

The inhibition is the relative decrease from the control value, in per cent. For orientation: pIC50 means −log10 of the IC50, conventionally taken in molar units.
